Results as given in ChEMBL document CHEMBL2074355, “Biochemical mechanism of modulation of human P-glycoprotein (ABCB1) by curcumin I, II, and III purified from Turmeric powder” (Biochem Pharmacol, 2004).

Legend:
Assay type in all cases: functional, cell-based
[1] = biological target: T1, ATP-dependent translocase ABCB1 (Homo sapiens, UniProt P08183); assay: TP_TRANSPORTER: increase in Rhodamine 123 intracellular accumulation in human KB-V1 cells
[2] = biological target: T1, ATP-dependent translocase ABCB1; assay: TP_TRANSPORTER: increase in Calcein-AM intracellular accumulation in human KB-V1 cells
[3] = biological target: T1, ATP-dependent translocase ABCB1; assay: TP_TRANSPORTER: increase in bodipy-FL-vinblastine intracellular accumulation in human KB-V1 cells

Measured: Activity

T1 sequence (P08183 whole entry): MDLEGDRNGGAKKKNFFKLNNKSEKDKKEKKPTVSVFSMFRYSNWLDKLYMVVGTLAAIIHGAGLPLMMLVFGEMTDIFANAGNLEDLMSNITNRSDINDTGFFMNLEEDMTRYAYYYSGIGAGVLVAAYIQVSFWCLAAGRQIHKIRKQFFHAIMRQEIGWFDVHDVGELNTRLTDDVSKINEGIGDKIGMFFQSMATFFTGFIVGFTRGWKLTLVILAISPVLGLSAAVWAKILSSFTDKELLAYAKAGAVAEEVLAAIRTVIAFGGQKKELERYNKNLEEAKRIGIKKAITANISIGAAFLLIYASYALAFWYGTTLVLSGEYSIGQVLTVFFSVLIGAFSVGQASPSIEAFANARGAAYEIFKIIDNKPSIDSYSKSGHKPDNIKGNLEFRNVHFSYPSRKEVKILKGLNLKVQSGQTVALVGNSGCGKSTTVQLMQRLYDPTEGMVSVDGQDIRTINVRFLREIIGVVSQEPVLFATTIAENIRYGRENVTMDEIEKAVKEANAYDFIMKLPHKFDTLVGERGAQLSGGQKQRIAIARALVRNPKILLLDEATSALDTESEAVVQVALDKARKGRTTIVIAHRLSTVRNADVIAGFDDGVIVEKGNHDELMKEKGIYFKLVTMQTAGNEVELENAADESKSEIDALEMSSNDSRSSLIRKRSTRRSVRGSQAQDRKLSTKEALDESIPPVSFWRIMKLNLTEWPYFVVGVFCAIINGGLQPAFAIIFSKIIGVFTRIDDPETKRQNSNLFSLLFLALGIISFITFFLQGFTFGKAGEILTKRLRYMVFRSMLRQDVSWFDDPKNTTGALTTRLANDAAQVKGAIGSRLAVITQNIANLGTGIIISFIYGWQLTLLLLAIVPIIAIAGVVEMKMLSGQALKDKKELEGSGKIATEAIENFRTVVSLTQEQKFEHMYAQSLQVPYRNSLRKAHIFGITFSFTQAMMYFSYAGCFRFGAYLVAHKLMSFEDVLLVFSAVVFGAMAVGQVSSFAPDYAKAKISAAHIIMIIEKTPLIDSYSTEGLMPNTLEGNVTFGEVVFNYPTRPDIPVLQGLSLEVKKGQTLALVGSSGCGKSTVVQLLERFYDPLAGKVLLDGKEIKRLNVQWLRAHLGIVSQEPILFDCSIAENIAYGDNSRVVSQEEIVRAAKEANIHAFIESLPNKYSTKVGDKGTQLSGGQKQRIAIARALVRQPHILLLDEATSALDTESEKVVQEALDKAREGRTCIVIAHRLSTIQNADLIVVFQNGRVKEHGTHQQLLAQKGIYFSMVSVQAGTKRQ

COc1cc(/C=C/C(=O)CC(=O)/C=C/c2ccc(O)c(OC)c2)ccc1O [CURCUMIN]
inhibitor [+]: all assays above
